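Interpolation was linear, between the two tested concentrations surrounding the appropriate level; five concentrations were tested over 48 hours in 96-well plates. TGI marks complete inhibition of growth.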
Key:
Experiment in all cases: NCI anticancer screen, dose series, 48 h
K-562 leukemia = test system: K-562 leukemia
RXF 393 renal = test system: RXF 393 renal
SNB-75 CNS = test system: SNB-75 CNS
UACC-62 melanoma = test system: UACC-62 melanoma
UACC-257 melanoma = test system: UACC-257 melanoma
NCI-H522 lung = test system: NCI-H522 lung
OVCAR-5 ovarian = test system: OVCAR-5 ovarian
OVCAR-8 ovarian = test system: OVCAR-8 ovarian
U251 CNS = test system: U251 CNS
HCC-2998 colon = test system: HCC-2998 colon
UO-31 renal = test system: UO-31 renal
PC-3 prostate = test system: PC-3 prostate
HS 578T breast = test system: HS 578T breast
ACHN renal = test system: ACHN renal
CAKI-1 renal = test system: CAKI-1 renal
NCI-H226 lung = test system: NCI-H226 lung
M14 melanoma = test system: M14 melanoma
SK-MEL-28 melanoma = test system: SK-MEL-28 melanoma
SW-620 colon = test system: SW-620 colon
HL-60(TB) leukemia = test system: HL-60(TB) leukemia
SF-268 CNS = test system: SF-268 CNS
HOP-92 NSCLC = test system: HOP-92 NSCLC
NCI/ADR-RES ovarian = test system: NCI/ADR-RES ovarian
OVCAR-4 ovarian = test system: OVCAR-4 ovarian
MDA-MB-231 breast = test system: MDA-MB-231 breast
SK-MEL-2 melanoma = test system: SK-MEL-2 melanoma
MOLT-4 leukemia = test system: MOLT-4 leukemia
EKVX NSCLC = test system: EKVX NSCLC
SF-539 CNS = test system: SF-539 CNS
DU-145 prostate = test system: DU-145 prostate
SN12C renal = test system: SN12C renal
A549 NSCLC = test system: A549 NSCLC
NCI-H460 lung = test system: NCI-H460 lung
CCRF-CEM leukemia = test system: CCRF-CEM leukemia
SR leukemia = test system: SR leukemia
TK-10 renal = test system: TK-10 renal
MALME-3M melanoma = test system: MALME-3M melanoma
RPMI-8226 leukemia = test system: RPMI-8226 leukemia
SK-MEL-5 melanoma = test system: SK-MEL-5 melanoma
MDA-MB-435 = test system: MDA-MB-435
MCF7 breast = test system: MCF7 breast
OVCAR-3 ovarian = test system: OVCAR-3 ovarian
SF-295 CNS = test system: SF-295 CNS
HCT-116 colon = test system: HCT-116 colon
COLO 205 colon = test system: COLO 205 colon
SNB-19 CNS = test system: SNB-19 CNS
BT-549 breast = test system: BT-549 breast
LOX IMVI melanoma = test system: LOX IMVI melanoma
IGROV1 ovarian = test system: IGROV1 ovarian
786-0 renal = test system: 786-0 renal
MDA-N = test system: MDA-N
KM12 colon = test system: KM12 colon
T-47D breast = test system: T-47D breast
HCT-15 colon = test system: HCT-15 colon

Measured: TGI

CCOC(=O)c1nc2cc(C(F)(F)F)ccc2nc1Oc1ccc(OC)cc1
> 100 µM: all assays above
